Patent US20150031641A1, “METHODS AND COMPOSITIONS FOR THE DIAGNOSIS, PROGNOSIS AND TREATMENT OF ACUTE MYELOID LEUKEMIA” (MEMORIAL SLOAN-KETTERING CANCER CENTER, priority 2012, published 2015)

System: patients with AML
Test: ECOG E1900 trial: overall survival after induction with high-dose vs standard-dose daunorubicin plus cytarabine, by genotype
Assay type: in vivo, human
Settings: for outcome with dose-intensified induction therapy: univariate analysis
Experimental: The present disclosure is based on mutational analysis of 18 genes in 398 patients with AML younger than 60 years of age randomized to receive induction therapy including high-dose or standard dose daunorubicin. Prognostic findings were further validated in an independent set of 104 patients.
Mutational analysis was performed on diagnostic patient samples from the ECOG E1900 trial in the test (n=398) and validation (n=104) cohorts. The test cohort comprised of all E1900 patients for whom viably frozen cells were available for DNA extraction and mutational profiling. The validation cohort comprised of a second set of patients for whom samples were banked in Trizol, which was used to extract DNA for mutational studies.
Clinical characteristics of the patients studied compared to the complete E1900 trial cohort are in Table 1. The median follow-up time of patients included for analysis was 47.4 months from induction randomization. Cytogenetic analysis, fluorescent in situ hybridization, and RT-PCR for recurrent cytogenetic lesions was performed as described initially by Slovak et al. and utilized previously with central review by the ECOG Cytogenetics Committee (see ref. 16 and 17).
Survival time was measured from date of randomization to date of death for those who died and date of last follow-up for those who were alive at the time of analysis. Survival probabilities were estimated using the Kaplan-Meier method and compared across mutant and wild-type patients using the log-rank test. Multivariate analyses were conducted using the Cox model with forward selection. Proportional hazards assumption was checked by testing for a non-zero slope in a regression of the scaled Schoenfeld residuals on functions of time (Table 3).
When necessary, such as the analyses performed in various subsets, results of the univariate analyses were used to select the variables to be included in the forward variable search. Final multivariate models informed the development of novel risk classification rules. When indicated, p-values were adjusted to control the family wise error rate (FWER) using the complete null distribution approximated by resampling obtained through PROC MULTTEST in SAS or the multtest library in R^19. These adjustements were performed to adjust for the probability of making one or more false discoveries given that multiple pairwise tests were being performed. The only exception is adjustment for tests regarding effect of mutations on response to induction dose where a step-down Holm procedure was used to correct for multiple testing. All analyses were performed using SAS 9.2 (www.sas.com) and R 2.12 (www.r-project.org).
Mutual exclusivitity of pairs of mutations were evaluated by fourfold contingency tables and Fisher's exact test. The association between mutations and cytogenetic risk classification was tested using the chi-square test. Hierarchical clustering was performed using the Lance-Williams dissimilarity formula and complete linkage. Survival time was measured from date of randomization to date of death for those who died and date of last follow-up for those who were alive at the time of analysis. Survival probabilities were estimated using the Kaplan-Meier method and compared across mutant and wildtype patients using the log-rank test. Multivariate analyses were conducted using the Cox model. Proportional hazards assumption was checked by testing for a non-zero slope in a regression of the scaled Schoenfeld residuals on functions of time. […]

**Q.** Which results are given for `COc1cccc2c1C(=O)c1c(O)c3c(c(O)c1C2=O)C[C@@](O)(C(C)=O)C[C@@H]3O[C@H]1C[C@H](N)[C@H](O)[C@H](C)O1` [daunorubicin]?
**A.** outcome with dose-intensified induction therapy (AML patients with MLL translocations): improved outcome; outcome with dose-intensified induction therapy (AML patients with NPM1 mutations): improved outcome; survival with high-dose daunorubicin according to treatment arm (DNMT3A mutant patients): associated with improved survival; impact of DNMT3A mutational status on the outcome with dose-intensive chemotherapy (patients receiving high-dose or standard-dose daunorubicin, FIG. 4B): significant impact; overall survival, high-dose relative to standard dose daunorubicin (patients with DNMT3A or NPM1 mutations or MLL translocations, cytarabine plus 90 vs 45 mg/m^2 daunorubicin induction): improved survival
